{
  "source": "patent US6391577B1",
  "about": "“Rapid electrochemical assay for antibiotic and cytotoxic drug susceptibility in microorganisms” (priority 1999, dated 2002)",
  "key": {"E. coli JM105 [1]": {"tested_on": "E. coli JM105", "experiment": "Integrated current (charge) measurement after incubation with lysozyme or EDTA", "assay_type": "cell-based", "conditions": "for Charge: single measurements, charge between 60 and 120 s", "experimental": "E. coli JM105 was grown in the same manner as in Example 1. The assay procedure used to determine the effect of lysozyme on mediated electrochemical respiration rate was as follows. […] Ferricyanide solution (270 μL) was then added so that the final ferricyanide concentration was 50 mM. These solutions were incubated at 37 C for 10 min. Each sample was then analyzed electrochemically using a Pt working electrode, Ag/AgCl reference electrode and a stainless steel auxilliary electrode, with an applied potential of +0.500 V. The current measured at the working electrode was integrated over the time between 60 and 120 seconds. These experiments were repeated to determine average values of integrated current (charge). The effect of ethylenediaminetetraacetate (EDTA) on electrochemical response was investigated in a similar manner. […] The samples were incubated 10 min at 37 C, and the electrochemical analysis was done as described above for lysozyme."}, "[2]": {"tested_on": "Clostridium sporogenes (ATCC 8075)", "experiment": "Mediated chronocoulometric respiration assay (ferricyanide + DCIP, anaerobic)", "assay_type": "cell-based", "conditions": "for Mediated Chronocoulometric Respiratory Activity Remaining, Percent: average of two measurements, 20 min + 20 min at 37 C under nitrogen", "experimental": "This organism was chosen as a typical gram-positive, obligate anaerobe. Growth under anaerobic conditions was accomplished using a similar medium to that used for E. coli except that the concentrations of yeast extract and tryptone were doubled and the concentration of glucose was five-fold lower for the C. sporogenes growth. Assay conditions were the same as in Example 2, with the following exceptions. The incubation of 20 μL of the bacterial suspension with 130 μL of either the blank buffer or the chloramphenicol or lysozyme solution was done for 20 min at 37 C. Mediator solution (150 μL) containing 0.10 M ferricyanide and 10 μM 2,6-dichlorophenolindophenol (DCIP) was then added and the mixture was allowed to incubate for another 20 min at 37 C, giving final concentrations of 0.050 M ferricyanide and 5 μM DCIP, respectively. All manipulations were performed under a stream of nitrogen, to ensure the absence of oxygen, which is known to inhibit the growth of C. sporogenes. Measurement by chronocoulometry was performed in an identical manner as in Example 2."}, "E. coli JM105 [3]": {"tested_on": "E. coli JM105", "experiment": "Chronocoulometric mediated respiration assay (ferricyanide)", "assay_type": "cell-based", "experimental": "At this time, a platinum disk working electrode, Ag/AgCl reference electrode and a stainless steel auxiliary electrode are inserted, and a potential of +0.50 V is applied using a potentiostat. The measured current is integrated over time to produce a plot of total charge against time. The change in total charge is measured between 60 and 120 seconds after the potential is applied. The same procedures for E. coli growth, incubation with ferricyanide and antibiotic, and measurement were used in this Example as were used in Example 2. One antibiotic was studied for the effect of concentration, and this was chloramphenicol."}, "[4]": {"tested_on": "Clostridium sporogenes (ATCC 8075)", "conditions": "see Bergey; cited from earlier work"}},
  "note": "Values joined by “and” are separate entries in the source; they are usually repeats but may differ in a detail not shown here. Equal entries are not always repeated.",
  "data": [
    {"compound": "Lysozyme: an enzyme that destroys cell walls and is used extensively in protein purification procedures", "values": [
      {"measurement": "Charge, Average", "setting": "E. coli JM105 [1]; lysozyme solution 1.5 mg/mL, blank 32 +/− 3", "value": "22 +/− 1 μC"},
      {"measurement": "loss of activity", "setting": "E. coli JM105 [1]; lysozyme, conditions of Example 3", "value": 31, "unit": "%"},
      {"measurement": "Charge", "setting": "E. coli JM105 [1]; lysozyme solution 1.5 mg/mL, 15 min at 0 C, then 10 min at 37 C with 50 mM ferricyanide", "value": "21.1 μC and 22.8 μC and 21.6 μC"},
      {"measurement": "Mediated Chronocoulometric Respiratory Activity Remaining, Percent", "setting": "[2]; final concentration 0.57 mg/mL", "value": 80, "unit": "%"},
      {"measurement": "loss of activity", "setting": "[2]; lysozyme, conditions of Example 5", "value": 20, "unit": "%"}
    ]},
    {"compound": "O=C(N[C@H](CO)[C@H](O)c1ccc([N+](=O)[O-])cc1)C(Cl)Cl", "note": "[Chloramphenicol]", "values": [
      {"measurement": "IC50", "setting": "E. coli JM105 [3]; Escherichia coli, JM105, from the concentration series of Table 5", "value": 48, "unit": "µM"},
      {"measurement": "MIC", "setting": "E. coli JM105 [3]; Escherichia coli, JM105, from the concentration series of Table 5, read-out: minimum inhibitory concentration", "value": 0.48, "unit": "µM"},
      {"measurement": "Mediated Chronocoulometric Respiration Activity Remaining, Percent", "setting": "E. coli JM105 [3]; chloramphenicol 0.0048 μM", "value": 95, "unit": "%"},
      {"measurement": "Mediated Chronocoulometric Respiration Activity Remaining, Percent", "setting": "E. coli JM105 [3]; chloramphenicol 0.048 μM", "value": 102, "unit": "%"},
      {"measurement": "Mediated Chronocoulometric Respiration Activity Remaining, Percent", "setting": "E. coli JM105 [3]; chloramphenicol 0.48 μM", "value": 66, "unit": "%"},
      {"measurement": "Mediated Chronocoulometric Respiration Activity Remaining, Percent", "setting": "E. coli JM105 [3]; chloramphenicol 4.8 μM", "value": 58, "unit": "%"},
      {"measurement": "Mediated Chronocoulometric Respiration Activity Remaining, Percent", "setting": "E. coli JM105 [3]; chloramphenicol 48 μM", "value": 52, "unit": "%"},
      {"measurement": "Mediated Chronocoulometric Respiration Activity Remaining, Percent", "setting": "E. coli JM105 [3]; chloramphenicol 480 μM", "value": 35, "unit": "%"},
      {"measurement": "Mediated Chronocoulometric Respiration Activity Remaining, Percent", "setting": "E. coli JM105 [3]; chloramphenicol 4800 μM", "value": 5, "unit": "%"},
      {"measurement": "Mediated Chronocoulometric Respiratory Activity Remaining, Percent", "setting": "[2]; final concentration 5.00 mM", "value": 24, "unit": "%"},
      {"measurement": "activity against growth", "setting": "[4]", "value": "active against the growth of this strain of Clostridium"}
    ]},
    {"compound": "O=C(O)CN(CCN(CC(=O)O)CC(=O)O)CC(=O)O", "note": "[EDTA, Ethylenediaminetetraacetate]", "values": [
      {"measurement": "Charge, Average", "setting": "E. coli JM105 [1]; 5 mM EDTA, blank 38 +/− 2", "value": "45 +/− 2 μC"},
      {"measurement": "Charge", "setting": "E. coli JM105 [1]; 5 mM EDTA in 50 mM ferricyanide, 10 min at 37 C", "value": "46.3 μC and 43.1 μC and 45.2 μC and 43.3 μC"}
    ]}
  ]
}
